Reference: publication PMC8079033, “Design, synthesis, anticancer evaluation, and molecular modelling studies of novel tolmetin derivatives as potential VEGFR-2 inhibitors and apoptosis inducers” (Journal of Enzyme Inhibition and Medicinal Chemistry, 2021)

How the values were obtained:
[1] = system: ACHN; assay: NCI 60-cell line one-dose antiproliferative screen (SRB); format: cell-based; settings: Homo sapiens, read-out: growth inhibition % (GI%)
Description: (§1) Anticancer activity screening of the newly synthesised compounds was measured in vitro utilising 60 different human tumour cell lines provided by US National Cancer Institute according to previously reported standard procedure[41–43] as follows: Cells are inoculated into 96-well microtiter plates in 100 ml. After cell inoculation, the microtiter plates are incubated at 37 °C, 5% CO2, 95% air, and 100% relative humidity for 24 h prior to addition of experimental compounds. After 24 h, two plates of each cell line are fixed in situ with TCA, to represent a measurement of the cell population for each cell line at the time of compound addition (Tz). Experimental compounds are solubilised in dimethyl sulfoxide at 400-fold the desired final maximum test concentration and stored frozen prior to use. At the time of compound addition, an aliquot of frozen concentrate is thawed and diluted to twice the desired final maximum test concentration with a complete medium containing […] gentamicin. Aliquots of […] of the compounds dilutions are added to the appropriate microtiter wells already containing 100 ml of medium, resulting in the required final compound concentration. Following compound addition, the plates are incubated for an additional 48 h at 37 °C, 5% CO2, 95% air, and 100% relative humidity. For adherent cells, the assay is terminated by the addition of cold trichloroacetic acid (TCA). Cells are fixed in situ by the gentle addition of 50 ml of cold 50% (w/v) TCA (final concentration, 10% TCA) and incubated for […] at 4 °C. The supernatant is discarded, and the plates are washed five times with tap water and air-dried. Sulforhodamine B (SRB) solution (100 ml) at 0.4% (w/v) in 1% acetic acid is added to each well, and plates are incubated for 10 min at room temperature. After staining, the unbound dye is removed by washing five times with 1% acetic acid and the plates are air-dried. The bound stain is subsequently solubilised with a 10 mM trizma base, and the absorbance is read on an automated plate reader at a wavelength of 515 nm. For suspension cells, the methodology is the same except that the assay is terminated by fixing settled cells at the bottom of the wells by gently adding 50 ml of 80% TCA (final concentration, 16% TCA). Using the absorbance measurements [time zero, (Tz), control growth, (C), and test growth in the presence of compound (Ti)], the percentage growth is calculated for each compound. The One-dose data are reported as a mean graph of the percent growth of treated cells. The reported number is growth relative to the no-compound control, and relative to the time zero number of cells. This allows the detection of both growth inhibition and lethality.
(§2) Fifteen newly synthesised compounds were tested for their in vitro antiproliferative activity by the National Cancer Institute (NCI), Maryland, USA[50], under the Developmental Therapeutic Program (DTP)[41]^,[43]^,[51]^,[52]. The tested compounds were evaluated at a concentration of 10 µM on a panel of 60 tumour cell lines representing leukaemia and non-small cell lung, colon, CNS, melanoma, ovarian, renal, prostate, and breast cancers. The antiproliferative activity was presented by the NCI as percent growth of the treated cells and is presented in Table 1 as growth inhibition percentage (GI%) achieved by the tested compounds.

[2] = system: CAKI-1; assay: as above; format: cell-based; settings: Homo sapiens, read-out: growth inhibition % (GI%)
Description: as §1, §2

[3] = system: EKVX; assay: as above; format: cell-based; settings: Homo sapiens, read-out: growth inhibition % (GI%)
Description: as §1, §2

[4] = system: HCC-2998; assay: as above; format: cell-based; settings: Homo sapiens, read-out: growth inhibition % (GI%)
Description: as §1, §2

[5] = system: HCT-15; assay: as above; format: cell-based; settings: Homo sapiens, read-out: growth inhibition % (GI%)
Description: as §1, §2

[6] = system: HOP-62; assay: as above; format: cell-based; settings: Homo sapiens, read-out: growth inhibition % (GI%)
Description: as §1, §2

[7] = system: HOP-92; assay: as above; format: cell-based; settings: Homo sapiens, read-out: growth inhibition % (GI%)
Description: as §1, §2

[8] = system: IGROV1; assay: as above; format: cell-based; settings: Homo sapiens, IGROV-1, read-out: growth inhibition % (GI%)
Description: as §1, §2

[9] = system: LOX IMVI; assay: as above; format: cell-based; settings: Homo sapiens, read-out: growth inhibition % (GI%)
Description: as §1, §2

[10] = system: MCF7; assay: as above; format: cell-based; settings: Homo sapiens, read-out: growth inhibition % (GI%)
Description: as §1, §2

[11] = system: MDA-MB-231/ATCC; assay: as above; format: cell-based; settings: Homo sapiens, read-out: growth inhibition % (GI%)
Description: as §1, §2

[12] = system: MDA-MB-435; assay: as above; format: cell-based; settings: Homo sapiens, read-out: growth inhibition % (GI%)
Description: as §1, §2

[13] = system: MDA-MB-468; assay: as above; format: cell-based; settings: Homo sapiens, read-out: growth inhibition % (GI%)
Description: as §1, §2

[14] = system: NCI-H226; assay: as above; format: cell-based; settings: Homo sapiens, read-out: growth inhibition % (GI%)
Description: as §1, §2

[15] = system: NCI-H23; assay: as above; format: cell-based; settings: Homo sapiens, read-out: growth inhibition % (GI%)
Description: as §1, §2

[16] = system: NCI-H522; assay: as above; format: cell-based; settings: Homo sapiens, read-out: growth inhibition % (GI%)
Description: as §1, §2

[17] = system: OVCAR-5; assay: as above; format: cell-based; settings: Homo sapiens, read-out: growth inhibition % (GI%)
Description: as §1, §2

[18] = system: OVCAR-8; assay: as above; format: cell-based; settings: Homo sapiens, read-out: growth inhibition % (GI%)
Description: as §1, §2

[19] = system: PC-3; assay: as above; format: cell-based; settings: Homo sapiens, read-out: growth inhibition % (GI%)
Description: as §1, §2

[20] = system: SF-268; assay: as above; format: cell-based; settings: Homo sapiens, read-out: growth inhibition % (GI%)
Description: as §1, §2

[21] = system: SF-295; assay: as above; format: cell-based; settings: Homo sapiens, read-out: growth inhibition % (GI%)
Description: as §1, §2

[22] = system: SF-539; assay: as above; format: cell-based; settings: Homo sapiens, read-out: growth inhibition % (GI%)
Description: as §1, §2

[23] = system: SK-MEL-5; assay: as above; format: cell-based; settings: Homo sapiens, read-out: growth inhibition % (GI%)
Description: as §1, §2

[24] = system: SN 12 C; assay: as above; format: cell-based; settings: Homo sapiens, SN12C, read-out: growth inhibition % (GI%)
Description: as §1, §2

[25] = system: SNB-75; assay: as above; format: cell-based; settings: Homo sapiens, read-out: growth inhibition % (GI%)
Description: as §1, §2

[26] = system: SW-620; assay: as above; format: cell-based; settings: Homo sapiens, read-out: growth inhibition % (GI%)
Description: as §1, §2

[27] = system: U251; assay: as above; format: cell-based; settings: Homo sapiens, U-251, read-out: growth inhibition % (GI%)
Description: as §1, §2

[28] = system: UACC-257; assay: as above; format: cell-based; settings: Homo sapiens, read-out: growth inhibition % (GI%)
Description: as §1, §2

[29] = system: UACC-62; assay: as above; format: cell-based; settings: Homo sapiens, read-out: growth inhibition % (GI%)
Description: as §1, §2

[30] = system: UO-31; assay: as above; format: cell-based; settings: Homo sapiens, read-out: growth inhibition % (GI%)
Description: as §1, §2

With `Cc1ccc(C(=O)c2ccc(CC(=O)NN=C3C(=O)Nc4ccccc43)n2C)cc1` [Compound 6a, 2–(1-Methyl-5–(4-methylbenzoyl)-1H-pyrrol-2-yl)-N′-(2-oxoindolin-3-ylidene) acetohydrazide] as the compound, how does the inhibition at 10 µM [1] read?
Its inhibition at 10 µM is < 10%.

And the inhibition at 10 µM [2]?
The inhibition at 10 µM was 12.3%.

And the inhibition at 10 µM [3]?
Its inhibition at 10 µM is < 10%.

What about the inhibition at 10 µM [4] of the same compound?
The inhibition at 10 µM was < 10%.

And the inhibition at 10 µM [5]?
The inhibition at 10 µM was < 10%.

And the inhibition at 10 µM [6]?
Its inhibition at 10 µM is < 10%.

And the inhibition at 10 µM [7]?
The inhibition at 10 µM was 11.1%.

And the inhibition at 10 µM [8]?
The inhibition at 10 µM was < 10%.

And the inhibition at 10 µM [9]?
Its inhibition at 10 µM is < 10%.

What about the inhibition at 10 µM [10] of the same compound?
The inhibition at 10 µM was < 10%.

And the inhibition at 10 µM [11]?
Its inhibition at 10 µM is 11.4%.

What about the inhibition at 10 µM [12] of the same compound?
Its inhibition at 10 µM is < 10%.

What about the inhibition at 10 µM [13] of the same compound?
Its inhibition at 10 µM is 10.5%.

And the inhibition at 10 µM [14]?
Its inhibition at 10 µM is < 10%.

What about the inhibition at 10 µM [15] of the same compound?
Its inhibition at 10 µM is < 10%.

What about the inhibition at 10 µM [16] of the same compound?
The inhibition at 10 µM was < 10%.

What about the inhibition at 10 µM [17] of the same compound?
Its inhibition at 10 µM is < 10%.

What about the inhibition at 10 µM [18] of the same compound?
Its inhibition at 10 µM is < 10%.

What about the inhibition at 10 µM [19] of the same compound?
The inhibition at 10 µM was < 10%.

And the inhibition at 10 µM [20]?
Its inhibition at 10 µM is < 10%.

And the inhibition at 10 µM [21]?
The inhibition at 10 µM was < 10%.

And the inhibition at 10 µM [22]?
Its inhibition at 10 µM is < 10%.

And the inhibition at 10 µM [23]?
The inhibition at 10 µM was < 10%.

And the inhibition at 10 µM [24]?
Its inhibition at 10 µM is < 10%.

And the inhibition at 10 µM [25]?
Its inhibition at 10 µM is 29.6%.

What about the inhibition at 10 µM [26] of the same compound?
The inhibition at 10 µM was < 10%.

And the inhibition at 10 µM [27]?
Its inhibition at 10 µM is < 10%.

And the inhibition at 10 µM [28]?
The inhibition at 10 µM was < 10%.

And the inhibition at 10 µM [29]?
The inhibition at 10 µM was < 10%.

And the inhibition at 10 µM [30]?
The inhibition at 10 µM was 25.7%.

And the melting point?
Its melting point is 193 to 195 °C.
